According to patent US12043630B2, “Polymorphic form of TG02 for treating cancer” (Cothera Bioscience, Inc., priority 2017, dated 2024):
Structures can show the parent of a compound that is named as a salt.

Legend:
Type in all cases: physicochemical
[1] = Thermodynamic Aqueous Solubility; settings: aqueous media; for Thermodynamic solubility: 25° C., 24 hours
Procedure: Aqueous solubility was determined by suspending sufficient compound in relevant media to give a maximum final concentration of ≥10 mg/ml of the parent freeform of the compound. The suspension was equilibrated at 25° C., on a Heidolph plate shaker set to 750 rpm for 24 hours. The pH of the saturated solution was then measured and the suspension filtered through a glass fibre C filter (particle retention 1.2 μm) and diluted appropriately. Quantitation was by HPLC with reference to a standard solution of approximately 0.15 mg/ml in DMSO. Different volumes of the standard, diluted and undiluted sample solutions were injected. The solubility was calculated using the peak areas determined by integration of the peak found at the same retention time as the principal peak in the standard injection.

[2] = Storage at elevated temperature and relative humidity, re-analysis by XRPD; settings: for XRPD following storage at elevated temperatures and relative humidity: 28 days
Excerpt: X-ray Powder Diffraction (XRPD or PXRD) diffractograms were collected on a Bruker AXS C2 GADDS, Bruker AXS DB Advance, PANalytical Empyrean, or similar diffractometer using Cu Kα radiation.
Proton NMR was consistent with the proposed structure. However, as the methylene protons of the citric acid overlapped with the D6-DMSO reference peak, the stoichiometric equivalence of citrate acid is slightly offset. […] Differential scanning calorimetry thermal events included a single broad endotherm at 204.5° C. (366.9 J/g).
Proton NMR analysis was consistent with the proposed structure, although there was overlap of the methylene protons of the citrate and the D6-DMSO reference peak. […] (327.7 J/g).
These additional peaks remained throughout the 28 days storage period. This may be caused by dehydration of the hydrate. Proton NMR analysis was consistent with the proposed structure, although there was overlap of the methylene protons of the citrate and the D6-DMSO reference peak. […] Differential scanning calorimetry consisted of a broad, asymmetrical endotherm between 25-115° C. (70.2 J/g) followed by a large endotherm at 186.0° C. (313.4 J/g), possibly due to the sample melt and dissolution of the salt. […] Water content was determined by Karl Fischer analysis to be 3.3%, equating to 1 molar equivalent of water.

[3] = Gravimetric Vapour Sorption (GVS); settings: for Hygroscopicity by GVS analysis / GVS uptake: 25° C.; for GVS uptake: between 0-90% RH
Procedure: Sorption isotherms were obtained using a SMS DVS Intrinsic moisture sorption analyser, controlled by DVS Intrinsic Control software. The sample temperature was maintained at 25° C. by the instrument controls. The humidity was controlled by mixing streams of dry and wet nitrogen, with a total flow rate of 200 ml/min. The relative humidity was measured by a calibrated Rotronic probe (dynamic range of 1.0-100% RH), located near the sample. The weight change, (mass relaxation) of the sample as a function of % RH was constantly monitored by a microbalance (accuracy±0.005 mg).
Typically, 5-30 mg of sample was placed in a tared mesh stainless steel basket under ambient conditions. The sample was loaded and unloaded at 40% RH and 25° C. (typical room conditions). A moisture sorption isotherm was performed as outlined below (2 scans per complete cycle). The standard isotherm was performed at 25° C. at 10% RH intervals over a 0-90% RH range. Typically, a double cycle (4 scans) was carried out. Data analysis was carried out within Microsoft Excel using the DVS Analysis Suite.
The sample was recovered after completion of the isotherm and re-analysed by XRPD.

[4] = Slurry of mixed TG02 citrate polymorphs in solvents, XRPD of recovered solids (Method B); settings: 4 days
Procedure: Method B: A homogeneous mixture of TG02 Form X (citrate), TG02 Citrate Pattern 1 of U.S. Pat. No. 9,120,815, and TG02 Citrate Pattern 2 of U.S. Pat. No. 9,120,815 was treated with solvent (20 vol.) and agitated for 4 days at different temperatures (5° C., 25° C., and 50° C.). The recovered solids were air dried and analysed by XRPD.

[5] = 40° C./75% RH, 25° C./97% RH and 60° C./ambient RH

CN1C/C=C/CCOc2cccc(c2)-c2ccnc(n2)Nc2cccc(c2)C1 [Form X (citrate), (16E)-14-methyl-20-oxa-5,7,14,26-tetraazatetracyclo[19.3.1.1(2,6).1(8,12)]heptacosa-1(25),2(26),3,5,8(27),9,11,16,21,23-decaene]
Thermodynamic solubility [1]: 640 µg/mL | XRPD following storage at elevated temperatures and relative humidity [2, 5]: remained unchanged by XRPD | XRPD following GVS analysis [3]: remained unchanged by XRPD | Hygroscopicity by GVS analysis [3]: non-hygroscopic | GVS uptake [3]: 0.13% | GVS maximum hysteresis ([3]; between 40-60% RH): 0.04%

CN1C/C=C/CCOc2cccc(c2)-c2ccnc(n2)Nc2cccc(c2)C1 [TG02 (Citrate)]
TG02 (Citrate) Polymorph recovered (XRPD) ([4]; Acetone 20 vol., 5° C.): Form X | TG02 (Citrate) Polymorph recovered (XRPD) ([4]; Acetone 20 vol., 25° C.): Form X | TG02 (Citrate) Polymorph recovered (XRPD) ([4]; Acetone 20 vol., 50° C.): Form X | TG02 (Citrate) Polymorph recovered (XRPD) ([4]; Acetone:H2O (9:1) 20 vol., 5° C.): Pattern 2 | TG02 (Citrate) Polymorph recovered (XRPD) ([4]; Acetone:H2O (9:1) 20 vol., 25° C.): Pattern 2 | TG02 (Citrate) Polymorph recovered (XRPD) ([4]; Acetone:H2O (9:1) 20 vol., 50° C.): Pattern 2 | TG02 (Citrate) Polymorph recovered (XRPD) ([4]; DCM:H2O (9:1) 20 vol., 5° C.): Pattern 2 + Form X | TG02 (Citrate) Polymorph recovered (XRPD) ([4]; DCM:H2O (9:1) 20 vol., 25° C.): Pattern 2 | TG02 (Citrate) Polymorph recovered (XRPD) ([4]; DCM:H2O (9:1) 20 vol., 50° C.): Form X | TG02 (Citrate) Polymorph recovered (XRPD) ([4]; EtOAc 20 vol., 5° C.): Pattern 2 + Form X | TG02 (Citrate) Polymorph recovered (XRPD) ([4]; EtOAc 20 vol., 25° C.): Form X | TG02 (Citrate) Polymorph recovered (XRPD) ([4]; EtOAc 20 vol., 50° C.): Form X | TG02 (Citrate) Polymorph recovered (XRPD) ([4]; H2O 20 vol., 5° C.): Pattern 2 | TG02 (Citrate) Polymorph recovered (XRPD) ([4]; H2O 20 vol., 25° C.): Pattern 2 | TG02 (Citrate) Polymorph recovered (XRPD) ([4]; H2O 20 vol., 50° C.): Pattern 2 | TG02 (Citrate) Polymorph recovered (XRPD) ([4]; IPA 20 vol., 5° C.): Form X | TG02 (Citrate) Polymorph recovered (XRPD) ([4]; IPA 20 vol., 25° C.): Form X | TG02 (Citrate) Polymorph recovered (XRPD) ([4]; IPA 20 vol., 50° C.): Form X | TG02 (Citrate) Polymorph recovered (XRPD) ([4]; TBME 20 vol., 5° C.): Pattern 2 + Form X | TG02 (Citrate) Polymorph recovered (XRPD) ([4]; TBME 20 vol., 25° C.): Pattern 2 + Form X | TG02 (Citrate) Polymorph recovered (XRPD) ([4]; TBME 20 vol., 50° C.): Form X | TG02 (Citrate) Polymorph recovered (XRPD) ([4]; THF:H2O (9:1) 20 vol., 5° C.): Pattern 2 | TG02 (Citrate) Polymorph recovered (XRPD) ([4]; THF:H2O (9:1) 20 vol., 25° C.): Pattern 2 | TG02 (Citrate) Polymorph recovered (XRPD) ([4]; THF:H2O (9:1) 20 vol., 50° C.): Pattern 2

CN1C/C=C/CCOc2cccc(c2)-c2ccnc(n2)Nc2cccc(c2)C1 [TG02 Citrate Pattern 1, (16E)-14-methyl-20-oxa-5,7,14,26-tetraazatetracyclo[19.3.1.1(2,6).1(8,12)]heptacosa-1(25),2(26),3,5,8(27),9,11,16,21,23-decaene]
XRPD following thermodynamic solubility analysis [1]: form change from TG02 Citrate Pattern 1 to TG02 Citrate Pattern 2 | Thermodynamic solubility [1]: 330 µg/mL | XRPD following storage at elevated temperatures and relative humidity [2, 5]: remained unchanged by XRPD | XRPD following GVS analysis [3]: remained unchanged by XRPD | Hygroscopicity by GVS analysis [3]: slightly-hygroscopic | GVS uptake [3]: 1.0% | GVS maximum hysteresis ([3]; between 40-50% RH): 0.2%

CN1C/C=C/CCOc2cccc(c2)-c2ccnc(n2)Nc2cccc(c2)C1 [TG02 Citrate Pattern 2, (16E)-14-methyl-20-oxa-5,7,14,26-tetraazatetracyclo[19.3.1.1(2,6).1(8,12)]heptacosa-1(25),2(26),3,5,8(27),9,11,16,21,23-decaene]
XRPD following thermodynamic solubility analysis [1]: remained unchanged by XRPD | Thermodynamic solubility [1]: 230 µg/mL | XRPD following storage at elevated temperatures and relative humidity ([2]; 40° C./75% RH and 25° C./97% RH): remained unchanged by XRPD | XRPD following storage ([2]; 60° C./ambient RH, peaks remained throughout 28 days): additional peaks being present in the XRPD diffractogram after 7 days | XRPD following GVS analysis [3]: remained unchanged by XRPD | Hygroscopicity by GVS analysis [3]: hygroscopic | GVS uptake [3]: 3.84% | GVS maximum hysteresis ([3]; between 10-30% RH): 1.4%
